# Assay results as given in PubChem BioAssay (NCI).
#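 Tested at 5 concentrations; 48 h exposure; 96-well plates; endpoints linearly interpolated, else capped at highest concentration. At the GI50, growth is halved. The concentration for full growth arrest is given as TGI.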
# What was measured:
# Experiment in all cases: NCI tumour cell line growth inhibition, 48 h
# [1] = test system: SR leukemia
# [2] = test system: RPMI-8226 leukemia
# [3] = test system: OVCAR-4 ovarian
# [4] = test system: CCRF-CEM leukemia
# [5] = test system: OVCAR-5 ovarian
# [6] = test system: NCI-H226 lung
# [7] = test system: U251 CNS
# [8] = test system: SNB-75 CNS
# [9] = test system: SNB-19 CNS
# [10] = test system: PC-3 prostate
# [11] = test system: MALME-3M melanoma
# [12] = test system: BT-549 breast
# [13] = test system: MOLT-4 leukemia
# [14] = test system: SW-620 colon
# [15] = test system: UACC-257 melanoma
# [16] = test system: A549 NSCLC
# [17] = test system: NCI-H23 lung
# [18] = test system: HS 578T breast
# [19] = test system: NCI-H522 lung
# [20] = test system: SK-MEL-5 melanoma
# [21] = test system: IGROV1 ovarian
# [22] = test system: SK-OV-3 ovarian
# [23] = test system: HL-60(TB) leukemia
# [24] = test system: MCF7 breast
# [25] = test system: HCC-2998 colon
# [26] = test system: 786-0 renal
# [27] = test system: HOP-62 NSCLC
# [28] = test system: UO-31 renal
# [29] = test system: SF-295 CNS
# [30] = test system: RXF 393 renal
# [31] = test system: SK-MEL-28 melanoma
# [32] = test system: SN12C renal
# [33] = test system: NCI/ADR-RES ovarian
# [34] = test system: UACC-62 melanoma
# [35] = test system: MDA-MB-435
# [36] = test system: LOX IMVI melanoma
# [37] = test system: M14 melanoma
# [38] = test system: ACHN renal
# [39] = test system: EKVX NSCLC
# [40] = test system: HOP-92 NSCLC
# [41] = test system: K-562 leukemia
# [42] = test system: COLO 205 colon
# [43] = test system: TK-10 renal
# [44] = test system: DU-145 prostate
# [45] = test system: SF-268 CNS
# [46] = test system: CAKI-1 renal
# [47] = test system: T-47D breast
# [48] = test system: SF-539 CNS
# [49] = test system: A498 renal
# [50] = test system: MDA-MB-231 breast
# [51] = test system: OVCAR-8 ovarian
# [52] = test system: NCI-H460 lung
# [53] = test system: HT29 colon
# [54] = test system: HCT-15 colon
# [55] = test system: KM12 colon
# [56] = test system: HCT-116 colon
# [57] = test system: SK-MEL-2 melanoma
# [58] = test system: OVCAR-3 ovarian
smiles,measurement,setting,value
Oc1ccc(CSc2nnc(-c3ccccc3)n2-c2ccccc2)c2cccnc12,GI50,[1],404 nM
same,TGI,[1],> 100000 nM
same,GI50,[2],448 nM
same,TGI,[2],> 100000 nM
same,GI50,[3],706 nM
same,TGI,[3],13000 nM
same,GI50,[4],396 nM
same,TGI,[4],> 43400 nM
same,GI50,[5],2880 nM
same,TGI,[5],> 100000 nM
same,GI50,[6],1900 nM
same,TGI,[6],> 79200 nM
same,GI50,[7],298 nM
same,TGI,[7],9460 nM
same,GI50,[8],673 nM
same,TGI,[8],5150 nM
same,GI50,[9],395 nM
same,TGI,[9],14200 nM
same,GI50,[10],440 nM
same,TGI,[10],> 47700 nM
same,GI50,[11],1150 nM
same,TGI,[11],6190 nM
same,GI50,[12],590 nM
same,TGI,[12],> 26000 nM
same,GI50,[13],480 nM
same,TGI,[13],> 100000 nM
same,GI50,[14],443 nM
same,TGI,[14],> 100000 nM
same,GI50,[15],811 nM
same,TGI,[15],6650 nM
same,GI50,[16],644 nM
same,TGI,[16],> 33300 nM
same,GI50,[17],541 nM
same,TGI,[17],11000 nM
same,GI50,[18],433 nM
same,TGI,[18],12100 nM
same,GI50,[19],402 nM
same,TGI,[19],7190 nM
same,GI50,[20],522 nM
same,TGI,[20],3220 nM
same,GI50,[21],557 nM
same,TGI,[21],13000 nM
same,GI50,[22],481 nM
same,TGI,[22],6810 nM
same,GI50,[23],376 nM
same,TGI,[23],6910 nM
same,GI50,[24],348 nM
same,TGI,[24],> 70200 nM
same,GI50,[25],728 nM
same,TGI,[25],> 100000 nM
same,GI50,[26],923 nM
same,TGI,[26],5090 nM
same,GI50,[27],449 nM
same,TGI,[27],7910 nM
same,GI50,[28],315 nM
same,TGI,[28],1560 nM
same,GI50,[29],406 nM
same,TGI,[29],4280 nM
same,GI50,[30],887 nM
same,TGI,[30],6120 nM
same,GI50,[31],614 nM
same,TGI,[31],55200 nM
same,GI50,[32],416 nM
same,TGI,[32],25400 nM
same,GI50,[33],285 nM
same,TGI,[33],2340 nM
same,GI50,[34],713 nM
same,TGI,[34],3630 nM
same,GI50,[35],439 nM
same,TGI,[35],> 100000 nM
same,GI50,[36],485 nM
same,TGI,[36],2820 nM
same,GI50,[37],405 nM
same,TGI,[37],2440 nM
same,GI50,[38],364 nM
same,TGI,[38],1290 nM
same,GI50,[39],771 nM
same,TGI,[39],6400 nM
same,GI50,[40],227 nM
same,TGI,[40],787 nM
same,GI50,[41],403 nM
same,TGI,[41],> 39700 nM
same,GI50,[42],4790 nM
same,TGI,[42],> 100000 nM
same,GI50,[43],514 nM
same,TGI,[43],4670 nM
same,GI50,[44],605 nM
same,TGI,[44],22200 nM
same,GI50,[45],519 nM
same,TGI,[45],21100 nM
same,GI50,[46],559 nM
same,TGI,[46],3440 nM
same,GI50,[47],625 nM
same,TGI,[47],4320 nM
same,GI50,[48],427 nM
same,TGI,[48],3270 nM
same,GI50,[49],1520 nM
same,TGI,[49],11700 nM
same,GI50,[50],620 nM
same,TGI,[50],11400 nM
same,GI50,[51],377 nM
same,TGI,[51],> 22800 nM
same,GI50,[52],351 nM
same,TGI,[52],3470 nM
same,GI50,[53],3960 nM
same,TGI,[53],> 100000 nM
same,GI50,[54],348 nM
same,TGI,[54],> 100000 nM
same,GI50,[55],534 nM
same,TGI,[55],> 100000 nM
same,GI50,[56],362 nM
same,TGI,[56],4870 nM
same,GI50,[57],621 nM
same,TGI,[57],6090 nM
CCN(CC)CCn1c2ccc(O)cc2c2sc3cc(OC)ccc3c(=O)c21,GI50,[1],1110 nM
same,TGI,[1],3150 nM
same,GI50,[2],1950 nM
same,TGI,[2],4880 nM
same,GI50,[3],1810 nM
same,TGI,[3],4040 nM
same,GI50,[4],1090 nM
same,TGI,[4],4500 nM
same,GI50,[5],2220 nM
same,TGI,[5],4680 nM
same,GI50,[6],10400 nM
same,TGI,[6],24200 nM
same,GI50,[7],1580 nM
same,TGI,[7],3340 nM
same,GI50,[8],2390 nM
same,TGI,[8],17400 nM
same,GI50,[9],1510 nM
same,TGI,[9],3410 nM
same,GI50,[10],1820 nM
same,TGI,[10],5090 nM
same,GI50,[11],1870 nM
same,TGI,[11],4010 nM
same,GI50,[12],6090 nM
same,TGI,[12],19900 nM
same,GI50,[13],389 nM
same,TGI,[13],1710 nM
same,GI50,[14],675 nM
same,TGI,[14],2110 nM
same,GI50,[15],2100 nM
same,TGI,[15],4680 nM
same,GI50,[16],1630 nM
same,TGI,[16],4300 nM
same,GI50,[17],1560 nM
same,TGI,[17],3180 nM
same,GI50,[18],1950 nM
same,TGI,[18],4590 nM
same,GI50,[20],1740 nM
same,TGI,[20],3140 nM
same,GI50,[21],1590 nM
same,TGI,[21],4520 nM
same,GI50,[22],13400 nM
same,TGI,[22],27200 nM
same,GI50,[23],1720 nM
same,TGI,[23],3550 nM
same,GI50,[24],1180 nM
same,TGI,[24],2790 nM
same,GI50,[25],1470 nM
same,TGI,[25],2910 nM
same,GI50,[26],1390 nM
same,TGI,[26],2790 nM
same,GI50,[27],6030 nM
same,TGI,[27],23700 nM
same,GI50,[28],1900 nM
same,TGI,[28],11500 nM
same,GI50,[29],5350 nM
same,TGI,[29],18800 nM
same,GI50,[30],1300 nM
same,TGI,[30],2680 nM
same,GI50,[31],1800 nM
same,TGI,[31],3290 nM
same,GI50,[32],5830 nM
same,TGI,[32],21200 nM
same,GI50,[33],1230 nM
same,TGI,[33],4010 nM
same,GI50,[34],1890 nM
same,TGI,[34],4260 nM
same,GI50,[35],1640 nM
same,TGI,[35],3100 nM
same,GI50,[36],1210 nM
same,TGI,[36],2590 nM
same,GI50,[37],1640 nM
same,TGI,[37],3310 nM
same,GI50,[38],1130 nM
same,TGI,[38],2440 nM
same,GI50,[39],1670 nM
same,TGI,[39],3500 nM
same,GI50,[40],2580 nM
same,TGI,[40],17000 nM
same,GI50,[41],1240 nM
same,TGI,[41],2810 nM
same,GI50,[42],3080 nM
same,TGI,[42],17900 nM
same,GI50,[43],9040 nM
same,TGI,[43],24700 nM
same,GI50,[44],1710 nM
same,TGI,[44],3510 nM
same,GI50,[45],7340 nM
same,TGI,[45],24500 nM
same,GI50,[46],3730 nM
same,TGI,[46],17000 nM
same,GI50,[47],14200 nM
same,TGI,[47],37900 nM
same,GI50,[48],1760 nM
same,TGI,[48],3200 nM
same,GI50,[49],3080 nM
same,TGI,[49],16500 nM
same,GI50,[50],1610 nM
same,TGI,[50],3710 nM
same,GI50,[51],2100 nM
same,TGI,[51],7260 nM
same,GI50,[52],1220 nM
same,TGI,[52],2660 nM
same,GI50,[53],1750 nM
same,TGI,[53],4290 nM
same,GI50,[54],1200 nM
same,TGI,[54],3280 nM
same,GI50,[55],1840 nM
same,TGI,[55],3720 nM
same,GI50,[56],1070 nM
same,TGI,[56],2380 nM
same,GI50,[58],2190 nM
same,TGI,[58],4880 nM
same,GI50,[57],9150 nM
same,TGI,[57],25100 nM
